The subject of test [1] is HS 578T. Put plainly: Anticancer activity, SRB assay, breast cell line HS 578T. In kind it is cell-based, human. The settings on record: Breast HS 578T, 48 h continuous drug exposure, —^b means GI50 values not attained at the concentrations used; for GI50: Homo sapiens, read-out: Growth Inhibition GI50. The protocol:
(§1) Some of biological activity studies were carried out at the National Cancer Institute (NCI), Maryland, USA.
(§2) The compounds were evaluated for anticancer activity against sixty human cancer cells derived from nine cancer types (leukemia cell line, non-small-cell lung cell line, colon cell line, CNS cell line, melanoma cell line, ovarian cell line, prostate cell line, renal cell line and breast cancer cell line) as shown in Table 1. For each compound, dose response curves for each cell line were measured at a minimum of five concentrations at 10 fold dilutions. A protocol of 48 h continuous drug exposure was used and a sulforhodamine B (SRB) protein assay was used to estimate cell viability or growth.
For orientation: The SRB assay estimates cell density from bound dye.

For test [2], the system named is SNB-75. Put plainly: Anticancer activity, SRB assay, CNS cell line SNB-75. In kind it is cell-based, human. Particulars: CNS SNB-75, 48 h continuous drug exposure, —^b means GI50 values not attained at the concentrations used; for GI50: Homo sapiens, read-out: Growth Inhibition GI50. The protocol: as §1, §2
In test [3] the test system is K-562. The test can be described thus: Anticancer activity, SRB assay, leukemia cell line K-562. The test is classed as cell-based. Particulars: Homo sapiens, K562; Leukemia K-562; 48 h continuous drug exposure; read-out: Growth Inhibition GI50. The protocol:
as §1, §2

The subject of test [4] is two prostate cancer cell line (PC-3, DU-145). Put plainly: Anticancer activity, SRB assay, prostate panel. In kind it is cell-based, human. Particulars: for mean graph midpoint values (MG_MID) of log10 TGI (Log10TGI50) / mean graph midpoint values (MG_MID) of Log10LC50 / mean graph midpoint values (MG_MID) of Log10GI50: Prostate; for mean graph midpoint values (MG_MID) of log10 TGI (Log10TGI50): log value of concentration of the compound resulting in total inhibition of net cell growth; for mean graph midpoint values (MG_MID) of Log10LC50: log value of the concentration of compounds leading to 50% net cell death; for mean graph midpoint values (MG_MID) of Log10GI50: log values of concentration in mol/L causing 50% inhibition of net cell growth; for GI50: Homo sapiens, DU-145, two prostate cancer cell line, exposure period of at least 48 h, read-out: GI50 (range over the panel). The protocol: as §1, §2

The test system of test [5] is EKVX. The test can be described thus: Anticancer activity, SRB assay, non-small lung cell line EKVX. In kind it is cell-based. Particulars: Homo sapiens, 48 h continuous drug exposure, read-out: Growth Inhibition GI50. The method, then:
as §1, §2

For test [6], the system named is DU-145. Put plainly: Anticancer activity, SRB assay, prostate cell line DU-145. The test is classed as cell-based, human. Particulars: Prostate DU-145, 48 h continuous drug exposure, —^b means GI50 values not attained at the concentrations used; for GI50: Homo sapiens, read-out: Growth Inhibition GI50. The protocol: as §1, §2
Test [7] concerns RPMI-8226. The test can be described thus: Anticancer activity, SRB assay, leukemia cell line RPMI-8226. The test is classed as cell-based. Particulars: Homo sapiens; Leukemia RPMI-8226; 48 h continuous drug exposure; read-out: Growth Inhibition GI50. The method, then:
as §1, §2

The subject of test [8] is NCI-H460. The test can be described thus: Anticancer activity, SRB assay, non-small lung cell line NCI-H460. The test is classed as cell-based. Particulars: Homo sapiens, Non-small lung NCl-H460, 48 h continuous drug exposure, read-out: Growth Inhibition GI50. The protocol:
as §1, §2

The test system of test [9] is MDA-MB-231/ATCC. Put plainly: Anticancer activity, SRB assay, breast cell line MDA-MB-231/ATCC. In kind it is cell-based. The settings on record: Homo sapiens; Breast MDA-MB-231/ATCC; 48 h continuous drug exposure; read-out: Growth Inhibition GI50. The method, then: as §1, §2
The subject of test [10] is MALME-3M. Put plainly: Anticancer activity, SRB assay, melanoma cell line MALME-3M. The test is classed as cell-based. The settings on record: Homo sapiens; Melanoma MALME-3M; 48 h continuous drug exposure; read-out: Growth Inhibition GI50. The protocol: as §1, §2
For test [11], the system named is U251. Put plainly: Anticancer activity, SRB assay, CNS cell line U251. The test is classed as cell-based. Particulars: Homo sapiens, U-251, 48 h continuous drug exposure, read-out: Growth Inhibition GI50. The protocol: as §1, §2
Test [12] relates to RXF 393. Put plainly: Anticancer activity, SRB assay, renal cell line RXF 393. In kind it is cell-based, human. Particulars: Renal RXF 393; 48 h continuous drug exposure; —^b means GI50 values not attained at the concentrations used. The method, then:
as §1, §2

In test [13] the test system is HCT-15. Put plainly: Anticancer activity, SRB assay, colon cell line HCT-15. In kind it is cell-based. Particulars: Homo sapiens; Colon HCT-15; 48 h continuous drug exposure; read-out: Growth Inhibition GI50. The protocol:
as §1, §2

For test [14], the system named is NCI-H226. Put plainly: Anticancer activity, SRB assay, non-small lung cell line NCI-H226. Particulars: Non-small lung NCl-H226, 48 h continuous drug exposure, —^b means GI50 values not attained at the concentrations used; for GI50: Homo sapiens, NCI-H226, read-out: Growth Inhibition GI50. The test is classed as cell-based, human. The method, then:
as §1, §2

The test system of test [15] is HCT-116. The test can be described thus: Anticancer activity, SRB assay, colon cell line HCT-116. In kind it is cell-based. The settings on record: Homo sapiens; Colon HCT-116; 48 h continuous drug exposure; read-out: Growth Inhibition GI50. The protocol: as §1, §2
Test [16] deals with nine non-small cell lung cancer cell lines (A549/ATCC, EKVX, HOP-62, HOP-92, NCI-H226, NCI-H23, NCI-H322M, NCI-H460 and NCI-H522). The test can be described thus: Anticancer activity, SRB assay, non-small cell lung panel. The test is classed as cell-based, human. Particulars: Non-small cell lung; for mean graph midpoint values (MG_MID) of log10 TGI (Log10TGI50): log value of concentration of the compound resulting in total inhibition of net cell growth; for mean graph midpoint values (MG_MID) of Log10LC50: log value of the concentration of compounds leading to 50% net cell death; for mean graph midpoint values (MG_MID) of Log10GI50: log values of concentration in mol/L causing 50% inhibition of net cell growth. The method, then:
as §1, §2

Assay in test [17]: as above
The test is classed as cell-based, human. The settings on record: Homo sapiens; nine non-small cell lung cancer cell lines; exposure period of at least 48 h; read-out: GI50 (range over the panel). The method, then:
as §1, §2

What is called GI50 is the concentration at which growth is held to half of that of the control.

SMILES strings stand for the structures.

`COc1ccc2cc(C#Cc3ccc(-n4c(/C=C/c5cc(OC)c(OC)c(OC)c5)nc5ccccc5c4=O)c(C)c3)ccc2c1` [Compound 6l, (E)-3-(4-((6-Methoxynaphthalen-2-yl)ethynyl)-2-methylphenyl)-2-(3,4,5-trimethoxystyryl)quinazolin-4(3H)-one]: the “Growth Inhibition GI50” value in [1], in [2], in test [6], in test [12] and in test [14] was “—^b” throughout. Moreover, the GI50 was 882 nM in test [3]; 24100 nM in test [5]; 821 nM in test [7]; 2480 nM in [8]; 37000 nM in test [9]; 42600 nM in test [10]. In addition, the GI50 in test [11] is 7400 nM; in [13] it was 1220 nM; in test [15] it was 3530 nM; in test [17], 2480 to 40500 nM. Also, the “mean graph midpoint values (MG_MID) of log10 TGI (Log10TGI50)” value (“mean graph midpoint values … (Log10TGI50)” for short) in test [4] and in test [16] was above −4.00 in each case. Moreover, the “mean graph midpoint values (MG_MID) of Log10LC50” value in test [4] and in test [16] was above −4.00 throughout. Also, the “mean graph midpoint values (MG_MID) of Log10GI50” value in test [4] is recorded as −4.00 mol/L; in test [16], −4.32 mol/L.
On to `Cc1cc(C#Cc2ccccc2)ccc1-n1c(/C=C/c2ccc(O)cc2)nc2ccccc2c1=O` [Compound 4b, (E)-2-(4-Hydroxystyryl)-3-(2-methyl-4-(phenylethynyl)phenyl)quinazolin-4(3H)-one], for which the GI50 is 2480 nM in test [1]; 3660 nM in test [2]; 2000 nM in [3]; 3240 to 4870 nM in test [4]; 2430 nM in test [5]; 4870 nM in test [6]. Besides, the GI50 was 2330 nM in test [7]; 2220 nM in test [8]; 3890 nM in test [9]; 2120 nM in test [10]; 4330 nM in [11]; 2500 nM in [13]. Besides, the results for the GI50 in [14], in test [15] and in test [17] were 3990 nM, 2660 nM and 2220 to 13100 nM, respectively. The “mean graph midpoint values … (Log10TGI50)” value in test [4] is reported as above −4.00; in [16] it was −4.32. Besides, the “mean graph midpoint values (MG_MID) of Log10LC50” value in [4] is listed as above −4.00; in test [16], −4.04. Besides, the results for the “mean graph midpoint values (MG_MID) of Log10GI50” value in [4] and in [16] were −5.40 mol/L and −5.47 mol/L, respectively.
For `Cc1cc(C#Cc2ccccc2)ccc1-n1c(/C=C/c2cc(O)ccc2O)nc2ccccc2c1=O` [Compound 4c, (E)-2-(2,5-Dihydroxystyryl)-3-(2-methyl-4-(phenylethynyl)phenyl)quinazolin-4(3H)-one], the GI50 was 1540 nM in test [1]; 1300 nM in test [2]; 1420 nM in test [3]; 419 to 2190 nM in test [4]; 1240 nM in [5]; 419 nM in [6]. Moreover, the GI50 in test [7] came out at 1260 nM; in [8], 1570 nM; in test [9], 1560 nM; in test [10] it was 1500 nM; in [11] it was 1450 nM; in [13] it was 1030 nM. In addition, the GI50 is 1520 nM in test [14], 1460 nM in [15] and 1240 to 1710 nM in test [17]. Also, the “mean graph midpoint values … (Log10TGI50)” value in [4] is reported as −5.43; in [16], −5.44. Also, the “mean graph midpoint values (MG_MID) of Log10LC50” value in [4] is given as −4.68; in test [16], −4.91. For the same molecule, the “mean graph midpoint values (MG_MID) of Log10GI50” value is given as −6.17 mol/L in [4] and −5.83 mol/L in [16].

The values above are taken from patent US8680272B2, “3-arylethynyl substituted quinazolinone compounds” (Council of Scientific & Industrial Research, priority 2011, dated 2014).
